Reference: patent US11692436B2, “Molecular tracers and modified proppants for monitoring underground fluid flows” (National Technology & Engineering Solutions of Sandia, LLC, priority 2014, dated 2023)

Assay: Elution studies: tracer release from an infused porous proppant pack under constant solvent flow
Format: physicochemical
Conditions: proppant pack infused with 4
Experimental: Elution studies: Laboratory experiments designed to mimic fluid flow through hydraulically-fractured zones in a subsurface well that contain a ceramic proppant were conducted. In general, the experimental setup uses a cartridge pump to send the desired solvent fluid (either aqueous or hydrocarbon) at a constant rate through a small “proppant pack” to a fraction collector. The proppant pack consists of porous proppants that have been infused with the metal salen compounds which are packed into a plastic syringe equipped with a fine mesh proppant retention screen at the entrance tip. The pore volume—a measure of the fluid volume within the pack of proppant pellets—is measured. The proppant pack is then sealed at the top with a rubber septum to generate pressure to force the exiting fluid into tubing for transport to the collection test tubes in the fraction collector. Samples were collected over many pore volumes and the concentrations of metal complexes in the samples were measured by either Atomic Absorption Spectrophotometry (AAS) or Raman spectroscopy after the desired number of pore volumes had passed over the proppant pack. […] This retardation of tracer release in the early stage of use is important as it will extend the useful life of the tracer in practical applications, as the total amount of tracer that can be loaded is limited by the porosity of the proppant and solubility of the M-L metal complex.
(iii) Elution data. As mentioned previously, in order for the prepared metal-salen ligand complexes to be useful in tracking fluid flows the infused complexes must elute from the underground proppants upon exposure to the produced fluid, and remain soluble until they are analyzed above-ground. […]
Second, the testing solvent can be either an aqueous salt solution that simulates a formation brine or a long-chain hydrocarbon (such as Isopar L) to mimic the organic products. […] The amount of eluted tracer could also be measured using quantitative Raman spectroscopy. […]

level of eluted Mg-salen complex (aliquot taken after four pore volumes had been collected (initial phase)): 176 ppb
level of eluted Mg-salen complex (intermediate sampling at the 20 pore volume mark): 29 ppb
level of eluted Mg-salen complex (latter stages of testing at the ~40 pore volume mark): 9 ppb
Substance: [(κ^4-(O,N,N′,O′)saloPh-Bu^t)Mg(py)2].tol [Compound 4]
